Source: paper PMC5011342, “A high throughput drug screening assay to identify compounds that promote oligodendrocyte differentiation using acutely dissociated and purified oligodendrocyte precursor cells” (BMC Research Notes, 2016)
Where two headings read alike, the source gives them in different places. Non-standard residues stand in square brackets, D forms with d. Residues, ends and D or L forms follow the SMILES beside them. pGlu = O=C1CC[C@@H](C(=O)O)N1; Thz = O=C(O)[C@@H]1CSCN1

Experiments:
expanded OPCs = assay: cells; details: for viability at 0.1 µM / viability at 1 µM / viability at 10 µM: Rattus norvegicus, 72 h
Summary of the method: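 Toxicity screen: compounds added at 0.1, 1 and 10 µM to PDGF-AA-expanded OPCs in 96-well plates, 3-day incubation at 37 °C, 10% CO2, then alamarBlue 1:10 for 4 h with fluorescence readout. Results set screening doses of 10/2, 2/0.4 or 0.4/0.08 µM.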

[1] = system: acutely dissociated and purified rat OPCs; assay: Acute OL differentiation assay (MBP expression/cell, immunofluorescent image quantification); type: cell-based; details: for activation at 2 µM / activation at 10 µM / activation at 0.4 µM: Rattus norvegicus
Summary of the method: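 This acute differentiation assay used purified rat OPCs from postnatal day 6–7 pups, seeded into PDL/laminin-coated 96-well plates in differentiation medium lacking PDGF and FGF. Compounds were applied in quadruplicate after a 1–2 h preincubation at 37 °C, 10 % CO2, with 0.1 % DMSO negative and 40 ng/ml T3 positive controls in eight wells. After fixation on DIV4, anti-MBP immunofluorescence images yielded MBP expression/cell.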

[2] = read-out: 0.1 µM (% DMSO), alamarBlue viability of expanded OPCs, compound at 0.1 µM, sheet All Tox data
[3] = read-out: 1 µM (% DMSO), alamarBlue viability of expanded OPCs, compound at 1 µM, sheet All Tox data
[4] = read-out: 10 µM (% DMSO), alamarBlue viability of expanded OPCs, compound at 10 µM, sheet All Tox data
[5] = 2 uM test compound, relative to quetiapine, sheet "All OLga data", read-out: OL differentiation, 2 uM (% Quet)
[6] = 10 uM test compound, relative to quetiapine, sheet "All OLga data", read-out: OL differentiation, 10 uM (% Quet)
[7] = alamarBlue viability of expanded OPCs, compound at 0.1 µM, relative to DMSO control
[8] = alamarBlue viability of expanded OPCs, compound at 1 µM, relative to DMSO control
[9] = alamarBlue viability of expanded OPCs, compound at 10 µM, relative to DMSO control
[10] = test compound at 2 uM, MBP expression relative to quetiapine, NCC library screen, sheet "All OLga data", read-out: 2 uM (% Quet)
[11] = test compound at 10 uM, MBP expression relative to quetiapine, NCC library screen, sheet "All OLga data", read-out: 10 uM (% Quet)
[12] = read-out: 0.1 µM (% DMSO), alamarBlue viability, NCC library compound at 0.1 µM, sheet "All Tox data"
[13] = read-out: 1 µM (% DMSO), alamarBlue viability, NCC library compound at 1 µM, sheet "All Tox data"
[14] = read-out: 10 µM (% DMSO), alamarBlue viability, NCC library compound at 10 µM, sheet "All Tox data"
[15] = test compound at 2 uM, NCC library screen, sheet "All OLga data", relative to quetiapine, read-out: 2 uM (% Quet)
[16] = test compound at 10 uM, NCC library screen, sheet "All OLga data", relative to quetiapine, read-out: 10 uM (% Quet)

Structure (SMILES) | viability at 0.1 µM (expanded OPCs; [2]) | viability at 1 µM (expanded OPCs; [3]) | viability at 10 µM (expanded OPCs; [4]) | activation at 2 µM [1, 5] | activation at 10 µM [1, 6] | 0.1 µM (% DMSO) (expanded OPCs; [7]) | 1 µM (% DMSO) (expanded OPCs; [8]) | 10 µM (% DMSO) (expanded OPCs; [9]) | activation at 2 µM [1, 15] | activation at 10 µM [1, 16] | other results
NC(=O)OCCCc1ccccc1 [Phenprobamate] | 96% | 95.1% | 92.7% | 26.9% | 12.1% | – | – | – | – | – | –
Cc1ccc(N(CC2=NCCN2)c2cccc(O)c2)cc1 [Phentolamine] | – | – | – | – | – | 93.8 % DMSO | 88.6 % DMSO | 62.0 % DMSO | – | – | activation at 2 µM [1, 10]: -17.9%; activation at 10 µM [1, 11]: -82.7%
O=C1NC(=O)C(c2ccccc2)(c2ccccc2)N1 [Phenytoin] | – | – | – | – | – | 88.8 % DMSO | 86.9 % DMSO | 83.9 % DMSO | – | – | activation at 2 µM [1, 10]: -25.2%; activation at 10 µM [1, 11]: -26.2%
CC1=C(C/C=C(\C)CCC[C@H](C)CCC[C@H](C)CCCC(C)C)C(=O)c2ccccc2C1=O [Phylloquinone] | – | – | – | – | – | – | – | – | – | – | 0.1 µM (% DMSO) (expanded OPCs): 96.6 % DMSO; 1 µM (% DMSO) (expanded OPCs): 89.8 % DMSO; 10 µM (% DMSO) (expanded OPCs): 87.4 % DMSO; 2 uM (% Quet) ([1]; test compound at 2 uM, NCC library screen, sheet "All OLga data", relative to quetiapine): 17.4 % Quet; 10 uM (% Quet) ([1]; test compound at 10 uM, NCC library screen, sheet "All OLga data", relative to quetiapine): -25.4 % Quet
CNC(=O)Oc1ccc2c(c1)[C@]1(C)CCN(C)[C@@H]1N2C [Physostigmine] | 105% | 96.7% | 78% | -4.5% | 0.12% | – | – | – | – | – | –
CC(C)(O)[C@@H]1[C@H]2OC(=O)[C@@H]1[C@]1(O)C[C@H]3O[C@]34C(=O)O[C@H]2[C@]14C [Picrotin] | 84.8% | 84.6% | 85.6% | 6.5% | 5.9% | – | – | – | – | – | –
O=C1CC[C@@H](C(=O)N2CSC[C@H]2C(=O)O)N1 [Pidotimod] ([pGlu]-[Thz]-OH) | 96.9% | 105% | 104% | 7.5% | -1.8% | – | – | – | – | – | –
CC[C@@H]1C(=O)OC[C@@H]1Cc1cncn1C [Pilocarpine] | 90.2% | 101% | 90.1% | 0.3% | 6.6% | – | – | – | – | – | –
CC(N/C(=N\C#N)Nc1ccncc1)C(C)(C)C (centres unmarked) [Pinacidil] | – | – | – | – | – | – | – | – | -0.57% | 26.1% | viability at 0.1 µM (expanded OPCs; [12]): 90.8%; viability at 1 µM (expanded OPCs; [13]): 98.8%; viability at 10 µM (expanded OPCs; [14]): 93.6%
CC(C)NCC(O)COc1cccc2[nH]ccc12 (centres unmarked) [Pindolol] | – | – | – | – | – | 88.9 % DMSO | 89.4 % DMSO | 86.5 % DMSO | -2.9% | -35.6% | –
CCc1ccc(CCOc2ccc(CC3SC(=O)NC3=O)cc2)nc1 (centres unmarked) [Pioglitazone] | 96.9% | 120% | 164% | 13.3% | 55.6% | – | – | – | – | – | –
CCN1CCN(C(=O)N[C@@H](C(=O)N[C@@H]2C(=O)N3[C@@H]2SC(C)(C)[C@@H]3C(=O)O)c2ccccc2)C(=O)C1=O [Piperacillin] | – | – | – | – | – | 89.0 % DMSO | 88.3 % DMSO | 88.0 % DMSO | 2% | -7.9% | –
Cc1nc2ccccn2c(=O)c1CCN1CCC(C(=O)c2ccc(F)cc2)CC1 [Pirenperone] | – | – | – | 31.6% | 62.7% | – | – | – | – | – | viability at 0.1 µM (expanded OPCs; [12]): 102%; viability at 1 µM (expanded OPCs; [13]): 92.1%; viability at 10 µM (expanded OPCs; [14]): 83%
c1cnc(N2CCN(Cc3ccc4c(c3)OCO4)CC2)nc1 [Piribedil] | 88.5% | 100% | 103% | 23.4% | 29.9% | – | – | – | – | – | –
CN1C(C(=O)Nc2ccccn2)=C(O)c2ccccc2S1(=O)=O [Piroxicam] | – | – | – | – | – | – | – | – | 12.1% | -2.1% | viability at 0.1 µM (expanded OPCs; [12]): 91.3%; viability at 1 µM (expanded OPCs; [13]): 88.3%; viability at 10 µM (expanded OPCs; [14]): 87.1%
CN1CCC(=C2c3ccccc3CCc3sccc32)CC1 [Pizotyline] | 86.7% | 65.3% | 24.6% | -30.6% | – | – | – | – | – | – | activation at 0.4 µM ([1]; 0.4 uM test compound, relative to quetiapine, sheet "All OLga data", read-out: OL differentiation, 0.4 uM (% Quet)): -8.8%

Structure (SMILES) | viability at 0.1 µM (expanded OPCs; [2]) | viability at 1 µM (expanded OPCs; [3]) | viability at 10 µM (expanded OPCs; [4]) | activation at 2 µM [1, 5] | activation at 10 µM [1, 6] | 0.1 µM (% DMSO) (expanded OPCs; [7]) | 1 µM (% DMSO) (expanded OPCs; [8]) | 10 µM (% DMSO) (expanded OPCs; [9]) | activation at 2 µM [1, 15] | activation at 10 µM [1, 16] | other results
OC[C@H]1O[C@@H](Oc2cc(O)cc(/C=C/c3ccc(O)cc3)c2)[C@H](O)[C@@H](O)[C@@H]1O [Polydatin] | 106% | 110% | 113% | -15% | -20.9% | – | – | – | – | – | –
C[n+]1ccccc1/C=N/O [Pralidoxime] | – | – | – | – | – | – | – | – | -5% | -3.8% | viability at 0.1 µM (expanded OPCs; [12]): 90.3%; viability at 1 µM (expanded OPCs; [13]): 93.1%; viability at 10 µM (expanded OPCs; [14]): 89.1%
CC[C@H](C)C(=O)O[C@H]1C[C@H](O)C=C2C=C[C@H](C)[C@H](CC[C@@H](O)C[C@@H](O)CC(=O)O)[C@H]21 [Pravastatin] | 113% | 124% | 151% | 8.6% | -87.5% | – | – | – | – | – | –
O=C(C1CCCCC1)N1CC(=O)N2CCc3ccccc3C2C1 (centres unmarked) [Praziquantel] | – | – | – | – | – | 85.2 % DMSO | 85.1 % DMSO | 85.6 % DMSO | 0.6% | -9.5% | –
CC(=O)OCC(=O)[C@@]1(O)CC[C@H]2[C@@H]3CCC4=CC(=O)C=C[C@]4(C)[C@H]3[C@@H](O)C[C@@]21C [Prednisolone acetate] | – | – | – | – | – | 112.3 % DMSO | 112.6 % DMSO | 109.9 % DMSO | – | – | activation at 2 µM [1, 10]: -3.3%; activation at 10 µM [1, 11]: -37.1%
C[C@]12C=CC(=O)C=C1CC[C@@H]1[C@@H]2[C@@H](O)C[C@@]2(C)[C@H]1CC[C@]2(O)C(=O)COC(=O)CCC(=O)O [Prednisolone hemisuccinate] | – | – | – | – | – | – | – | – | 10.2% | 9.3% | viability at 0.1 µM (expanded OPCs; [12]): 107%; viability at 1 µM (expanded OPCs; [13]): 95%; viability at 10 µM (expanded OPCs; [14]): 94.3%
C[C@]12C=CC(=O)C=C1CC[C@@H]1[C@@H]2[C@@H](O)C[C@@]2(C)[C@H]1CC[C@]2(O)C(=O)CO [Prednisolone] | – | – | – | – | – | 117.5 % DMSO | 112.6 % DMSO | 109.9 % DMSO | -21.9% | -15.7% | –
C[C@]12C=CC(=O)C=C1CC[C@@H]1[C@@H]2C(=O)C[C@@]2(C)[C@H]1CC[C@]2(O)C(=O)CO [Prednisone] | – | – | – | – | – | 88.8 % DMSO | 89.0 % DMSO | 86.2 % DMSO | -4.5% | -47.4% | –
CCCNC(C)C(=O)Nc1ccccc1C (centres unmarked) [Prilocaine] | – | – | – | – | – | 89.7 % DMSO | 89.9 % DMSO | 89.6 % DMSO | 2.7% | -1.2% | –
COc1cc(NC(C)CCCN)c2ncccc2c1 (centres unmarked) [Primaquine] | – | – | – | – | – | 90.1 % DMSO | 66.2 % DMSO | 32.4 % DMSO | – | – | activation at 0.4 µM ([1]; read-out: 0.4 uM (% Quet)): -10%; activation at 2 µM ([1]; read-out: 2 uM (% Quet)): -37.5%
CCC1(c2ccccc2)C(=O)NCNC1=O [Primidone] | – | – | – | – | – | – | – | – | 1.4% | 15.6% | viability at 0.1 µM (expanded OPCs; [12]): 86.9%; viability at 1 µM (expanded OPCs; [13]): 89.5%; viability at 10 µM (expanded OPCs; [14]): 82.3%
CCCN(CCC)S(=O)(=O)c1ccc(C(=O)O)cc1 [Probenecid] | – | – | – | – | – | – | – | – | 1.7% | -6.4% | viability at 0.1 µM (expanded OPCs; [12]): 89.6%; viability at 1 µM (expanded OPCs; [13]): 94.3%; viability at 10 µM (expanded OPCs; [14]): 91.5%
CCN(CC)CCNC(=O)c1ccc(N)cc1 [Procainamide] | – | – | – | – | – | – | – | – | 0.4% | 19.7% | viability at 0.1 µM (expanded OPCs; [12]): 106%; viability at 1 µM (expanded OPCs; [13]): 111%; viability at 10 µM (expanded OPCs; [14]): 120%
CCN(CC)CCOC(=O)c1ccc(N)cc1 [Procaine] | – | – | – | – | – | – | – | – | -5.2% | 7.7% | viability at 0.1 µM (expanded OPCs; [12]): 121%; viability at 1 µM (expanded OPCs; [13]): 145%; viability at 10 µM (expanded OPCs; [14]): 146%
CNNCc1ccc(C(=O)NC(C)C)cc1 [Procarbazine] | 82.3% | 87.2% | 96.6% | 0.13% | -31.6% | – | – | – | – | – | –
